The source of these data is ChEMBL document CHEMBL5696442, “Discovery of type II inhibitors of TGFβ-activated kinase 1 (TAK1) and mitogen-activated protein kinase kinase kinase kinase 2 (MAP4K2)” (J Med Chem, 2015).

Test [1] addresses Ankyrin repeat and protein kinase domain-containing protein 1 (Homo sapiens) (UniProt Q8NFD2). Kind of test: Inhibition of ANKK1 (unknown origin) at 1 uM by Ambit Kinomescan binding assay relative to control.
Test [2] deals with Insulin receptor-related protein (Homo sapiens) (UniProt P14616). Kind of test: Inhibition of INSRR (unknown origin) at 1 uM by Ambit Kinomescan binding assay relative to control; values are per cent of control.
Test [3] has as its target Dual specificity protein kinase TTK (Homo sapiens) (UniProt P33981). Kind of test: Inhibition of TTK (unknown origin) at 1 uM by Ambit Kinomescan binding assay relative to control.
Test [4] addresses Serine/threonine-protein kinase 33 (Homo sapiens) (UniProt Q9BYT3). Kind of test: Inhibition of STK33 (unknown origin) at 1 uM by Ambit Kinomescan binding assay relative to control.
Test [5] addresses Mitogen-activated protein kinase kinase kinase 9 (Homo sapiens) (UniProt P80192). Kind of test: Inhibition of MLK1 (unknown origin) at 10 uM by Ambit Kinomescan binding assay.
Test [6] deals with Serine/threonine-protein kinase 16 (Homo sapiens) (UniProt O75716). Kind of test: Inhibition of MPSK1 K2 labeling site in human Huh-7 cells at 10 uM by KiNativ Profiling analysis relative to control. It is filed as cell-based.
Test [7] concerns the target Calcium/calmodulin-dependent protein kinase type 1G (Homo sapiens) (UniProt Q96NX5). Briefly: Inhibition of CAMK1G (unknown origin) at 10 uM by Ambit Kinomescan binding assay relative to control.
In test [8] the target is STE20-like serine/threonine-protein kinase (Homo sapiens) (UniProt Q9H2G2). Briefly: Inhibition of SLK Lys1 labeling site in human A-375 cells at 5 uM by KiNativ Profiling analysis relative to control. It is filed as cell-based.
Test [9] deals with Non-receptor tyrosine-protein kinase TNK1 (Homo sapiens) (UniProt Q13470). Briefly: Inhibition of TNK1 (unknown origin) at 10 uM by Ambit Kinomescan binding assay relative to control; values are per cent of control.
For test [10], the target named is Mitogen-activated protein kinase kinase kinase 20 (Homo sapiens, UniProt Q9NYL2). Briefly: Inhibition of ZAK Lys1 labeling site in human A-375 cells at 5 uM by KiNativ Profiling analysis relative to control. Format: cell-based.
Test [11] concerns Epidermal growth factor receptor (Homo sapiens), P00533 [UNDEFINED MUTATION]. Kind of test: Inhibition of EGFR L747-E749del/A750P mutant (unknown origin) at 10 uM by Ambit Kinomescan binding assay relative to control.
Test [12] addresses Calcium/calmodulin-dependent protein kinase type II subunit delta (Homo sapiens) (UniProt Q13557). Briefly: Inhibition of CAMK2d K1 labeling site harbouring IPTGQEYAAKIINTKK in human Huh-7 cells at 1 uM by KiNativ Profiling analysis relative to control. It is filed as cell-based.
The target of test [13] is Cyclin-dependent kinase 20 (Homo sapiens) (UniProt Q8IZL9). Kind of test: Inhibition of CCRK Lys2 labeling site in human A-375 cells at 0.5 uM by KiNativ Profiling analysis relative to control. Format: cell-based.
The target in test [14] is Phosphatidylinositol 4,5-bisphosphate 3-kinase catalytic subunit beta isoform (Homo sapiens) (UniProt P42338). Kind of test: Inhibition of PIK3CB ATP labeling site harbouring VFGEDSVGVIFKNGDDLRQDMLTLQMLR in human Huh-7 cell lysate at 1 uM by KiNativ Profiling analysis relative to control. It is filed as subcellular.
Test [15] addresses 5'-AMP-activated protein kinase catalytic subunit alpha-1 (Homo sapiens) (UniProt Q13131). Kind of test: Inhibition of AMPKa1 Lys1 labeling site in human Huh-7 cell lysate at 1 uM by KiNativ Profiling analysis relative to control. Format: subcellular.
The target in test [16] is T1, Phosphatidylinositol 5-phosphate 4-kinase type-2 gamma (Homo sapiens) (UniProt Q8TBX8).
T1 sequence (whole entry): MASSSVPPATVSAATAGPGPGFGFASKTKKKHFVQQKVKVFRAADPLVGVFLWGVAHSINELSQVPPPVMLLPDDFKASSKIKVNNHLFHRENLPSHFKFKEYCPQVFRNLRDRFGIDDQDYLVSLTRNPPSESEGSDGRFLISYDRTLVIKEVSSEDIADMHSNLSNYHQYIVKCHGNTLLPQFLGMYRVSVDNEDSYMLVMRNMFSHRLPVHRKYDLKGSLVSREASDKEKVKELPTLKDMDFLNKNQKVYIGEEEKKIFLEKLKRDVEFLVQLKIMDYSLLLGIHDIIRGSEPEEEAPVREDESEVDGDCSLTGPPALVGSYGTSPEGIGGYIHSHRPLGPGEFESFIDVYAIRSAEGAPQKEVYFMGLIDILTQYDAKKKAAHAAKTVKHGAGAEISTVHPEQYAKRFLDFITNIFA
Briefly: Inhibition of PIP4K2C ATP labeling site harbouring VKELPTLKDMDFLNK in human Huh-7 cells at 1 uM by KiNativ Profiling analysis relative to control. Format: cell-based.

For test [17], the target named is T2, Serine/threonine-protein kinase D1 (Homo sapiens) (UniProt Q15139).
T2 sequence (whole entry): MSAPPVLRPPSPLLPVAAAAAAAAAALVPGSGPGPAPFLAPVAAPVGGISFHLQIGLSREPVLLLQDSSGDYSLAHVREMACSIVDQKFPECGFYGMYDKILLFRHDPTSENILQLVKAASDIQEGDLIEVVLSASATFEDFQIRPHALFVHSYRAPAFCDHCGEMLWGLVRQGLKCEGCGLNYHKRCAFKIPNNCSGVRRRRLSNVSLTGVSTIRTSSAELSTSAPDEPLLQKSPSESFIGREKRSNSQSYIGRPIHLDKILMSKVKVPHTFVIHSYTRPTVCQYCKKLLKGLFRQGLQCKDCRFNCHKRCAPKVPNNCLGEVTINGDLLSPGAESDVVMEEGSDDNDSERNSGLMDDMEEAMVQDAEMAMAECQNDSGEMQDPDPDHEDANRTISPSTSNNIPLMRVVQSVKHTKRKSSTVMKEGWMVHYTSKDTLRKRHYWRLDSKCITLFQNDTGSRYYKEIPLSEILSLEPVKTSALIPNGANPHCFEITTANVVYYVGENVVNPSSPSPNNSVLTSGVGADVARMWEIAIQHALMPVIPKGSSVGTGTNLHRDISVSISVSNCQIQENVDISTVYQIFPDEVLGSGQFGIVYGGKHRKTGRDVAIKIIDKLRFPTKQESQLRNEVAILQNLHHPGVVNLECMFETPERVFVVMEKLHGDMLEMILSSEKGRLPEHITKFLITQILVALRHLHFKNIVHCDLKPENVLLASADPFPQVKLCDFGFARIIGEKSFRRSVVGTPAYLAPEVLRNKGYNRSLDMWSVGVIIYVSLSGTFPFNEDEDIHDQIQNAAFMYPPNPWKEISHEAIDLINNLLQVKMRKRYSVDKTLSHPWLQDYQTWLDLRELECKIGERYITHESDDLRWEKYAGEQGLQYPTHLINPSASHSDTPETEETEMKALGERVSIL
Briefly: Inhibition of PKD1 Lys2 labeling site in human Huh-7 cell lysate at 1 uM by KiNativ Profiling analysis relative to control. Format: subcellular.

Activity calls are given as the source filed them. The calls are words filed in the database; no cut-off is given here.

Calcium/calmodulin-dependent protein kinase type II subunit delta (Homo sapiens), sequence (Q13557 whole entry): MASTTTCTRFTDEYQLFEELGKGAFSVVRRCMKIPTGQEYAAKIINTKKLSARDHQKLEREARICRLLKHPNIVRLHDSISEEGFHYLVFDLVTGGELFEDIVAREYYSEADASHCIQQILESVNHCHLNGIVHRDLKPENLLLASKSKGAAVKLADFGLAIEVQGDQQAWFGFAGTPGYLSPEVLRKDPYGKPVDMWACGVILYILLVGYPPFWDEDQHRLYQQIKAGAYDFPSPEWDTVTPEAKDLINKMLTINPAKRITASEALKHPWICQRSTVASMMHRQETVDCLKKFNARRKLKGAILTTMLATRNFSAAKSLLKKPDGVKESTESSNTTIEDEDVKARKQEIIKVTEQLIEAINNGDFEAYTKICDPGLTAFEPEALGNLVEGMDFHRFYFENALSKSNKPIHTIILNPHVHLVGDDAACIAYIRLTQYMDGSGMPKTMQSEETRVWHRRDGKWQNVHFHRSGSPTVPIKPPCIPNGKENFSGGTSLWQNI
Calcium/calmodulin-dependent protein kinase type 1G (Homo sapiens), sequence (Q96NX5 whole entry): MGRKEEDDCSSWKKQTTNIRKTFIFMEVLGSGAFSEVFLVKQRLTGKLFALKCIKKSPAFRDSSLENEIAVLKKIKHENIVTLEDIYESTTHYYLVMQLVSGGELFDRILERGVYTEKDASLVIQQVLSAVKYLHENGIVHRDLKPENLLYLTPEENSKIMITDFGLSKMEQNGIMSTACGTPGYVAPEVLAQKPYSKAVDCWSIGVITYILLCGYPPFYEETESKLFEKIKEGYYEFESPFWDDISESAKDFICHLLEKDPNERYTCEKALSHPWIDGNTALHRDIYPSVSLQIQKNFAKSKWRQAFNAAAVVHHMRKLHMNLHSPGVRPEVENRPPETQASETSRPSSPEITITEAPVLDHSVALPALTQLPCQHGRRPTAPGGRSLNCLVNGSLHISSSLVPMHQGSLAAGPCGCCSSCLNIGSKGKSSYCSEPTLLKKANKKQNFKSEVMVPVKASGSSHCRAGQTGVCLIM
Cyclin-dependent kinase 20 (Homo sapiens), sequence (Q8IZL9 whole entry, canonical isoform): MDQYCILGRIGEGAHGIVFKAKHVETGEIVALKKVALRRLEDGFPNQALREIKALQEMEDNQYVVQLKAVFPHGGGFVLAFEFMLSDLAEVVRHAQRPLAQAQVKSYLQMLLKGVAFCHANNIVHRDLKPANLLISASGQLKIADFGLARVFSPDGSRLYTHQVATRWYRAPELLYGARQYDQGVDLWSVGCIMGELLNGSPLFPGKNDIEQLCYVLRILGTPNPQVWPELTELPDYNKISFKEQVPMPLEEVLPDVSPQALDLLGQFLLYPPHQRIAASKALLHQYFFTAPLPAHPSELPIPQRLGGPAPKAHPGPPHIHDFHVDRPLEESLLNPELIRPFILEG
Mitogen-activated protein kinase kinase kinase 9 (Homo sapiens), sequence (P80192 whole entry, looked up): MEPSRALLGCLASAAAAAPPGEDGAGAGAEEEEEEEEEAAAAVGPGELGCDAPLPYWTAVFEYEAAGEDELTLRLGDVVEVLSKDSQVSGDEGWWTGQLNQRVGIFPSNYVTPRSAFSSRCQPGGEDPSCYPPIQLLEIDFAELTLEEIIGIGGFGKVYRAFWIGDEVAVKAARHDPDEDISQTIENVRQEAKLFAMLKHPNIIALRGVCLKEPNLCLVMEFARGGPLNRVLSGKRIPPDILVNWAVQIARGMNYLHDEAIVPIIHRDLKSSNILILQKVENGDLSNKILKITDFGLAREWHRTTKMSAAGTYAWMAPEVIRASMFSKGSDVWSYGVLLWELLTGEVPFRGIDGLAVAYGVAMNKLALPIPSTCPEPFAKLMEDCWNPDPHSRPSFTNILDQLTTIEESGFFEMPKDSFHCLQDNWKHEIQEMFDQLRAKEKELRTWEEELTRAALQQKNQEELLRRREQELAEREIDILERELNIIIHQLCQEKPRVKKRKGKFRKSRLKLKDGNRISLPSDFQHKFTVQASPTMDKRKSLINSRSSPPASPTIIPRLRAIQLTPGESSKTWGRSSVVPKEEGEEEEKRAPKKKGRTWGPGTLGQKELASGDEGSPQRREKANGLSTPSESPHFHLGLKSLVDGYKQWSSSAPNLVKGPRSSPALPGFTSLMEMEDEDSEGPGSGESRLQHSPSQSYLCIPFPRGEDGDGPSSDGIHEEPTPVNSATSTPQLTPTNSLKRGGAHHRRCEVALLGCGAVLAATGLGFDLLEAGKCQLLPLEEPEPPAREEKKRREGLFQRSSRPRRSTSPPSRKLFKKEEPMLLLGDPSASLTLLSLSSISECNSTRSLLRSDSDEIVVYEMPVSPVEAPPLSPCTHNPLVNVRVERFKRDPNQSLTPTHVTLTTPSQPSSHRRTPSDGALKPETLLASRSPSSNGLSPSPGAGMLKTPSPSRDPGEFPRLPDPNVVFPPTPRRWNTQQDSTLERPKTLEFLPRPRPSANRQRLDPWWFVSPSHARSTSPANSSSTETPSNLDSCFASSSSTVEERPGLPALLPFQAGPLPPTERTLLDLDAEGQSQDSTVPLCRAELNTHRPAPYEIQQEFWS
Dual specificity protein kinase TTK (Homo sapiens), sequence (P33981 whole entry): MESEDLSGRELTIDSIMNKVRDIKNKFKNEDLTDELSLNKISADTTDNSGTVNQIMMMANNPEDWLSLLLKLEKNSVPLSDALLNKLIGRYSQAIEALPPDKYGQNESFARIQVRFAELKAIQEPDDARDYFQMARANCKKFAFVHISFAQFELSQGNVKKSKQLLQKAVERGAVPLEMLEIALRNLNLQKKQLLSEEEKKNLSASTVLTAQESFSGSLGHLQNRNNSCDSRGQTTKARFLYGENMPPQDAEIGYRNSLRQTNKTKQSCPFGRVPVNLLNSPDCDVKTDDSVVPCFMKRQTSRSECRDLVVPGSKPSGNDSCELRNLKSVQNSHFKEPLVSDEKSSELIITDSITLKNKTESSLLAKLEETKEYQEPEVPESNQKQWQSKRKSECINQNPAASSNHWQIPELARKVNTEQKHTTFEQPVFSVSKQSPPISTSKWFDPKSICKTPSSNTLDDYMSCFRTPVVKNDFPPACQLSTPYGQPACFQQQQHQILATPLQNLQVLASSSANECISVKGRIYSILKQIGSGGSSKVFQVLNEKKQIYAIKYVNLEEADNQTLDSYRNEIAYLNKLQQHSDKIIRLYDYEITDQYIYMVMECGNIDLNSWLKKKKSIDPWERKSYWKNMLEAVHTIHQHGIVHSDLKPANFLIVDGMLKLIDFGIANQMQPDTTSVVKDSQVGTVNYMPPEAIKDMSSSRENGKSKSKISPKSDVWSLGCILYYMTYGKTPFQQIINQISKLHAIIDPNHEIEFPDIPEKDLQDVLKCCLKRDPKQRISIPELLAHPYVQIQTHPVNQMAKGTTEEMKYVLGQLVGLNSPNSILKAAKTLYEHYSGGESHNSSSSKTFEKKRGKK
Epidermal growth factor receptor (Homo sapiens), P00533 [UNDEFINED MUTATION], sequence (P00533 whole entry, looked up, stated change not applied): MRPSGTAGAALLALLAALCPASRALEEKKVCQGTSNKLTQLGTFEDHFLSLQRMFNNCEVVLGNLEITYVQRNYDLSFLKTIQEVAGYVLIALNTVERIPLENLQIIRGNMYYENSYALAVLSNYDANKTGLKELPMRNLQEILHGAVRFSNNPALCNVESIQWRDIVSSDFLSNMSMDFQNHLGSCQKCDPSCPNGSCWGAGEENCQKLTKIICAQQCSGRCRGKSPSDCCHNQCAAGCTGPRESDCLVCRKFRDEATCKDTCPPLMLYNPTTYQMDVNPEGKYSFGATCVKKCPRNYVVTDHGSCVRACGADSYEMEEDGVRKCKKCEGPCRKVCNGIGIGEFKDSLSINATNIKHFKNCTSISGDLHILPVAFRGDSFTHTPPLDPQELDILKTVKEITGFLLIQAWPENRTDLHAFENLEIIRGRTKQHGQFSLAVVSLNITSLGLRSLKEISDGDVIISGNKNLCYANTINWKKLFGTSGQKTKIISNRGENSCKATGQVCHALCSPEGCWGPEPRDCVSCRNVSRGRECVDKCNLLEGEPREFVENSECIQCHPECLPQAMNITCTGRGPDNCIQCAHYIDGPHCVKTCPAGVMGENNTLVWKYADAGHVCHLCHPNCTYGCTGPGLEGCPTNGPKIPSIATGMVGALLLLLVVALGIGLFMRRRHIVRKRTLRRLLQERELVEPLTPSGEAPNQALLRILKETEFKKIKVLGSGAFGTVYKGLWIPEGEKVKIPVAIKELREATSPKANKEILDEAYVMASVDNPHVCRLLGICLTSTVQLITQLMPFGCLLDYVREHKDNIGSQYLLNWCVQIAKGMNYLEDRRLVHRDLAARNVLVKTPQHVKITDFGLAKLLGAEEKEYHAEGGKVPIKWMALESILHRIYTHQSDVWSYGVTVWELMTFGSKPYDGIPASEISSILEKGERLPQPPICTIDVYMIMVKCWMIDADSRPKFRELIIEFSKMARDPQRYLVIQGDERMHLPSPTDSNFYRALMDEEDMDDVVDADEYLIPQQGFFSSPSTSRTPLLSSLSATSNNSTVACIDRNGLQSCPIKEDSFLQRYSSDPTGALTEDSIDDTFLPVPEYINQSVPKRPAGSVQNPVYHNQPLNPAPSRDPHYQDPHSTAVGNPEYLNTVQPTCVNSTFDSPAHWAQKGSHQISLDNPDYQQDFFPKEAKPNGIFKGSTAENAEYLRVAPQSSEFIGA
Serine/threonine-protein kinase 33 (Homo sapiens), sequence (Q9BYT3 whole entry, looked up): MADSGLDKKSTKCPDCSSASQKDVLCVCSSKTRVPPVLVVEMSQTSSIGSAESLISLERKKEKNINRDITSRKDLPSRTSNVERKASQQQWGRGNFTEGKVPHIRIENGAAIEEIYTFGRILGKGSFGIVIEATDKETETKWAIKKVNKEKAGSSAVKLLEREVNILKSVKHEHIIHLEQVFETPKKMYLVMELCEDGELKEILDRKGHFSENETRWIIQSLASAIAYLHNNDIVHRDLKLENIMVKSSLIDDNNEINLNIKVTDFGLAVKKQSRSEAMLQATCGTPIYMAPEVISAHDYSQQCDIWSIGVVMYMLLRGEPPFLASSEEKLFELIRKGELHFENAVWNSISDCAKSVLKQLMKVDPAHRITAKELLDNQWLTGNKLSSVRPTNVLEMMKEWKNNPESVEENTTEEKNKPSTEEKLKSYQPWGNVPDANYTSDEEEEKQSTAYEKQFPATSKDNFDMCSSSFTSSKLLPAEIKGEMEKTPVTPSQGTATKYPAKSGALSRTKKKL

For the compound `CCN1CCN(Cc2ccc(NC(=O)c3ccc(C)c(/C=C/c4cnc5[nH]ccc5c4OC)c3)cc2C(F)(F)F)CC1`, the inhibition in [1] was determined as 6%; in [3], 56%; in test [4], 78%. This compound returned a residual activity in test [2] of 100%.

Turning to `CCN1CCN(Cc2ccc(NC(=O)c3ccc(C)c(Oc4ccnc5[nH]ccc45)c3)cc2C(F)(F)F)CC1`, the inhibition entry in test [5] was “inactive”. Also, the inhibition in test [6] came to 19.2%; in test [7], 20%; in [8] it was 34.6%; in [10], 98.1%; in [11], 1.5%; in test [12], 4.4%. Also, the inhibition in [13] is -2.3%. In addition, the residual activity in [9] was 0.35%.

For the compound `CNc1cc(Oc2cc(C(=O)Nc3cc(N4CCN(C)CC4)cc(C(F)(F)F)c3)ccc2C)ncn1`, the inhibition was 15.8% in [14], 8.7% in test [15], 5.4% in test [16] and -3.5% in [17].

For orientation: inhibition means the relative decrease from the control value, in per cent. A word on the residual activity: it is the share of the control activity or signal that is left under treatment.
